Like-named read-outs stand apart in the source and are kept apart here.
How the values were obtained:
Type in all cases: cell-based
[1] = tested on: OVCAR-3 (Adenocarcinoma, ovary, human); test: Anti-cancer activity assay, alamarBlue cell growth, OVCAR-3
Description: (§1) Four human tumor cell lines, OVCAR-3 (Adenocarcinoma, ovary, human), A549 (Carcinoma, lung, human), HT-29 (Adenocarcinoma, colon, moderately well-differentiated grade II, human) and MCF-7 (Breast adenocarcinoma, pleural effusion, human) were chosen in the experiments., which were obtained from American Type Culture Collection (ATCC) under codes of ATCC HTB-161, ATCC CCL-185, ATC HTB-38 and ATCC HTB-22, respectively. The culture medium used for OVCAR-3 was RPMI 1640 medium with 20% fetal bovine serum, which was supplemented with 0.01 mg bovine insulin per ml and 1% Antibiotice-Antimycotic. The culture medium used for A549 was F-12K nutrient mixture (Kaighn's Modification), 90%; and fetal bovine serum 10%. The culture medium used for HT-29 was McCoy's 5A medium, 90%; and fetal bovine serum, 10%. The culture medium used for MCF-7 was Minimum Essential Medium, 90%; and fetal bovine serum, 10%.
CK was dissolved in a mixed solvent of ethanol and Cremophor® RH40 (ethanol:Cremophor® RH40=1:1), and then diluted with sterile distilled water to obtain test solutions having CK concentrations of 10000, 1000, 100, 10, 1 μg/ml in 5% ethanol and 5% Cremophor® RH40.
(§2) Aliquots of 100 μl of cell suspension (about 1.0˜3.0×10^3/well) were placed in 96-well microtiter plates in an atmosphere of 5% CO2 at 37° C. After 24 hours, 100 μl of growth medium and 2 μl of test solution or vehicle (5% ethanol and 5% Cremophor® RH40) were added per respectively per well in duplicate for an additional 72-hour incubation. Thus, the final concentration of vehicle was 0.05%. The test compound, CK, was evaluated at concentrations of 100, 10, 1, 0.1, 0.01 μg/ml. At the end of the incubation, 20 μl of alamarBlue 90% reagent was added to each well for another 6-hour incubation before detection of cell viability by fluorescent intensity. Fluorescent intensity was measured using a SPECTRAfluor Plus plate reader with excitation at 530 nm and emission at 590 nm.
The tumor cell lines used were the same as in Experiment 1.
CK succinate and CK glutarate derivatives were directly dissolved in the phosphate buffered saline (PBS) having a pH of 7.4, and then diluted with sterile distilled water to obtain test solutions having concentrations of the CK derivative of 2000, 200, 20, 2, 0.2 μg/ml in 40% PBS
as §2, with “(about 5.0×10^3/well)” for “(about 1.0˜3.0×10^3/well)”, “hours, 90” for “hours, 100”, “and 10” for “and 2”, “vehicle (40% PBS, pH 7.4)” for “vehicle (5% ethanol and 5% Cremophor® RH40)”, “compound, CK derivative,” for “compound, CK,”
The measured results were calculated according to the following formulas: • PG (Percent Growth): PG(%)=100%×(Mean Ftest-Mean Ftime0)/(Mean Fctrl-Mean Ftime0) • If (Mean Ftest-Mean Ftime0)<0, then PG(%)=100%×(Mean Ftest-Mean Ftime0)/(Mean Ftime0-Mean Fblank) wherein • Mean Ftime0=The average of two measured fluorescent intensities of reduced alamarBlue at the time just before exposure of cells to the test compound; • Mean Ftest=The average of two measured fluorescent intensities of alamarBlue after 72-hour exposure of cells to the test compound; • Mean Fctrl=The average of two measured fluorescent intensities of alamarBlue after 72-hour incubation without the test compound; • Mean Fblank=The average of two measured fluorescent intensities of alamarBlue in medium without cells after 72-hour incubation. […]

[2] = tested on: MCF-7 (Breast adenocarcinoma, pleural effusion, human); test: Anti-cancer activity assay, alamarBlue cell growth, MCF-7; details: 72-hour incubation, CK in 5% ethanol/5% Cremophor RH40, derivatives in PBS pH 7.4, read-out: IC50 (μM) of CK, CK succinate and CK glutarate derivatives, MCF-7
Description: as §1, with “The culture medium used for A549 was F-12K nutrient mixture (Kaighn's Modification), 90%; and fetal bovine serum 10%. The culture medium used for HT-29 was McCoy's 5A medium, 90%; and fetal bovine serum, 10%. The culture medium used for MCF-7 was Minimum Essential Medium, 90%; and fetal bovine serum, 10%.” left out
(§3) Aliquots of 100 μl of cell suspension (about 1.0˜3.0×10^3/well) were placed in 96-well microtiter plates in an atmosphere of 5% CO2 at 37° C. […] The test compound, CK, was evaluated at concentrations of 100, 10, 1, 0.1, 0.01 μg/ml. […] Fluorescent intensity was measured using a SPECTRAfluor Plus plate reader with excitation at 530 nm and emission at 590 nm. […]
as §3, with “5.0×10^3/well)” for “1.0˜3.0×10^3/well)”, “CK derivative,” for “CK,”

[3] = tested on: HT-29 (Adenocarcinoma, colon, moderately well-differentiated grade II, human); test: Anti-cancer activity assay, alamarBlue cell growth, HT-29; details: 72-hour incubation, CK in 5% ethanol/5% Cremophor RH40, derivatives in PBS pH 7.4, read-out: IC50 (μM) of CK, CK succinate and CK glutarate derivatives, HT-29
Description: as §1, with “The culture medium used for A549 was F-12K nutrient mixture (Kaighn's Modification), 90%; and fetal bovine serum 10%. The culture medium used for HT-29 was McCoy's 5A medium, 90%; and fetal bovine serum, 10%. The culture medium used for MCF-7 was Minimum Essential Medium, 90%; and fetal bovine serum, 10%.” left out
as §3
as §3, with “5.0×10^3/well)” for “1.0˜3.0×10^3/well)”, “CK derivative,” for “CK,”

[4] = tested on: A549 (Carcinoma, lung, human); test: Anti-cancer activity assay, alamarBlue cell growth, A549; details: 72-hour incubation, CK in 5% ethanol/5% Cremophor RH40, derivatives in PBS pH 7.4, read-out: IC50 (μM) of CK, CK succinate and CK glutarate derivatives, A549
Description: as §1, with “The culture medium used for A549 was F-12K nutrient mixture (Kaighn's Modification), 90%; and fetal bovine serum 10%. The culture medium used for HT-29 was McCoy's 5A medium, 90%; and fetal bovine serum, 10%. The culture medium used for MCF-7 was Minimum Essential Medium, 90%; and fetal bovine serum, 10%.” left out
as §3
as §3, with “5.0×10^3/well)” for “1.0˜3.0×10^3/well)”, “CK derivative,” for “CK,”

[5] = OVCAR-3 tumor cell, Table 4, read-out: IC50 (μM) of ginsenosides and it's succinate derivatives on OVCAR-3 tumor cell
[6] = OVCAR-3, 72-hour incubation, alamarBlue, CK in 5% ethanol/5% Cremophor RH40, derivatives in PBS pH 7.4, read-out: IC50 (μM) of CK, CK succinate and CK glutarate derivatives, OVCAR-3

## CC(C)=CCCC(C)(O)C1CCC2(C)C1C(OC(=O)CCC(=O)O)CC1C3(C)CCC(OC(=O)CCC(=O)O)C(C)(C)C3C(OC(=O)CCC(=O)O)CC12C (stereo not shown) [GS53, PPT-3,6,12-trisuccinate]
[1]; [5]
  IC50: 47.6 µM

## CC(C)=CCCC(C)(O)C1CCC2(C)C1C(OC(=O)CCC(=O)O)CC1C3(C)CCC(OC(=O)CCC(=O)O)C(C)(C)C3CCC12C (stereo not shown) [GS42, PPD-3,12-disuccinate]
[1]; [5]
  IC50: 30.3 µM

## CC(C)=CCCC(C)(O)C1CCC2(C)C1C(OC(=O)CCC(=O)O)CC1C3(C)CCC(O)C(C)(C)C3CCC12C (stereo not shown) [GS41, PPD-12-monosuccinate]
[1]; [5]
  IC50: 42.8 µM

## CC(C)=CCC[C@](C)(O)[C@H]1CC[C@]2(C)[C@@H]1[C@H](O)C[C@@H]1[C@@]3(C)CC[C@H](O)C(C)(C)[C@@H]3[C@@H](O)C[C@]12C [GS50, protopanaxatriol, reference compound]
[1]; [5]
  IC50: 31.5 µM

## CC(C)=CCCC(C)(O)C1CCC2(C)C1C(OC(=O)CCC(=O)O)CC1C3(C)CCC(OC(=O)CCC(=O)O)C(C)(C)C3C(O)CC12C (stereo not shown) [GS52, PPT-3,12-disuccinate]
[1]; [5]
  IC50: 26.6 µM

## CC(C)=CCC[C@](C)(O[C@@H]1O[C@H](CO)[C@@H](O)[C@H](OC(=O)CCC(=O)O)[C@H]1O)[C@H]1CC[C@]2(C)[C@@H]1[C@H](O)C[C@@H]1[C@@]3(C)CC[C@H](O)C(C)(C)[C@@H]3CC[C@]12C [GS-8, CK-3′-monosuccinate]
[1]; [6]
  IC50: 19.3 µM
[2]
  IC50: 53.9 µM
[3]
  IC50: 71.9 µM
[4]
  IC50: 31.8 µM

## CC(C)=CCC[C@](C)(O[C@@H]1O[C@H](CO)[C@@H](O)[C@H](O)[C@H]1O)[C@H]1CC[C@]2(C)[C@@H]1[C@H](O)C[C@@H]1[C@@]3(C)CC[C@H](O)C(C)(C)[C@@H]3[C@@H](O)C[C@]12C [GS30, F1, reference compound]
[1]; [5]
  IC50: 50.1 µM

## CC(C)=CCCC(C)(OC1OC(CO)C(O)C(OC(=O)CCC(=O)O)C1O)C1CCC2(C)C1C(O)CC1C3(C)CCC(O)C(C)(C)C3C(O)CC12C (stereo not shown) [GS32, F1-3′-monosuccinate]
[1]; [5]
  IC50: 14.9 µM

## CC(C)=CCCC(C)(OC1OC(COC(=O)CCC(=O)O)C(O)C(OC(=O)CCC(=O)O)C1O)C1CCC2(C)C1C(O)CC1C3(C)CCC(O)C(C)(C)C3CCC12C (stereo not shown) [GS-9, CK-3′,6,-disuccinate]
[1]; [6]
  IC50: 89.9 µM

## CC(C)=CCCC(C)(OC1OC(COC(=O)CCCC(=O)O)C(O)C(OC(=O)CCCC(=O)O)C1O)C1CCC2(C)C1C(O)CC1C3(C)CCC(O)C(C)(C)C3CCC12C (stereo not shown) [GS-14, CK-3′,6′-diglutarate]
[1]; [6]
  IC50: 79.8 µM

## CC(C)=CCCC(C)(OC1OC(COC(=O)CCC(=O)O)C(O)C(O)C1O)C1CCC2(C)C1C(O)CC1C3(C)CCC(O)C(C)(C)C3CCC12C (stereo not shown) [GS-6, CK-6′-monosuccinate]
[1]; [6]
  IC50: 22.1 µM

## CC(C)=CCCC(C)(OC1OC(CO)C(O)C(OC(=O)CCCC(=O)O)C1O)C1CCC2(C)C1C(O)CC1C3(C)CCC(O)C(C)(C)C3CCC12C (stereo not shown) [GS-13, CK-3′-monoglutarate]
[1]; [6]
  IC50: 69.1 µM

## CC(C)=CCCC(C)(OC1OC(COC(=O)CCC(=O)O)C(OC(=O)CCC(=O)O)C(OC(=O)CCC(=O)O)C1O)C1CCC2(C)C1C(O)CC1C3(C)CCC(O)C(C)(C)C3CCC12C (stereo not shown) [GS-11, CK-3′,4′,6′-trisuccinate]
[1]; [6]
  IC50: > 100 µM

## CC(C)=CCCC(C)(O)[C@H]1CC[C@]2(C)[C@@H]1[C@H](O)C[C@@H]1[C@@]3(C)CC[C@H](O)C(C)(C)[C@@H]3CC[C@]12C (stereo in doubt) [GS40, protopanaxadiol, reference compound]
[1]; [5]
  IC50: 28.2 µM

## CC(C)=CCC[C@](C)(O[C@@H]1O[C@H](CO)[C@@H](O)[C@H](O)[C@H]1O)[C@H]1CC[C@]2(C)[C@@H]1[C@H](O)C[C@@H]1[C@@]3(C)CC[C@H](O)C(C)(C)[C@@H]3CC[C@]12C [GS-12, 20-O-β-D-glucopyranosyl-protopanaxadiol, reference compound]
[1]; [6]
  IC50: 2.7 µM
[2]
  IC50: 11.2 µM
[3]
  IC50: 9.3 µM
[4]
  IC50: 17.7 µM

## CC(C)=CCCC(C)(O)C1CCC2(C)C1C(OC(=O)CCC(=O)O)CC1C3(C)CCC(O)C(C)(C)C3C(O)CC12C (stereo not shown) [GS51, PPT-12-monosuccinate]
[1]; [5]
  IC50: 31.2 µM

Reference: US20060234956A1, “Dicarboxylic acid ester derivatives of ginsenoside, pharmaceutical preparations containing the same, and preparation thereof” (Amersen Bioscience International, Inc., priority 2005, published 2006)
